In this assay the target is T1, human beta 2 adrenoreceptor (Homo sapiens, UniProt P07550).
T1 construct: expressed in transfected cells; host or cells: frog melanophores
The experiment in a line: frog melanophores transfected with human beta 2 adrenoreceptor, pigment dispersal (light transmittance). Type of assay: cell-based. To be noted: melatonin-induced pigment aggregation, change in light transmittance, read-out: IC50 values at the human beta 2 adrenoreceptor (beta 2 agonist activity). The protocol: The potencies of the aforementioned compounds were determined using frog melanophores transfected with the human beta 2 adrenoreceptor. The cells were incubated with melatonin to induce pigment aggregation. Pigment dispersal was induced by compounds acting on the human beta 2 adrenoreceptor. The beta 2 agonist activity of test compounds was assessed by their ability to induce a change in light transmittance across a melanophore monolayer (a consequence of pigment dispersal).

These results are taken from patent US7045658B2, “Formailide derivatives as beta2-adrenoreceptor agonists” (Glaxo Group Limited, priority 2001, dated 2006).

T1 sequence (P07550 whole entry): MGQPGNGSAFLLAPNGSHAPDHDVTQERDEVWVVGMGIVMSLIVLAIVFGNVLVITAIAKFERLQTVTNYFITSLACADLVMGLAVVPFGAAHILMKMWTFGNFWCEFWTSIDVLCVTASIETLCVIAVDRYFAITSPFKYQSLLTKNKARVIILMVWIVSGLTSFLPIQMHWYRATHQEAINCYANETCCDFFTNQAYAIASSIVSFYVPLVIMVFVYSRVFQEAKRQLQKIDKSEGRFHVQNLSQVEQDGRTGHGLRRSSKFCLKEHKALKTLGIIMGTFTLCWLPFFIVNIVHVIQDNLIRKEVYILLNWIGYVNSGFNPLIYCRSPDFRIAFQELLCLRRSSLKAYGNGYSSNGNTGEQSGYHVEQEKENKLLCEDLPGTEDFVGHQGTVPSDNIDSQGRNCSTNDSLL

`NS(=O)(=O)c1cccc(CCCCOCCCCCCNC[C@H](O)c2ccc(O)c(NC=O)c2)c1` [Example 1, 3-(4-{[6-({(2R)-2-[3-(Formylamino)-4-hydroxyphenyl]-2-hydroxyethyl}amino)hexyl]oxy}butyl)benzenesulfonamide compound with (2E)-but-2-enedioic acid (2:1)]: the IC50 was under 1000 nM. In the case of `CC(C)(C)NS(=O)(=O)c1cccc(CCCCOCCCCCCNC[C@H](O)c2ccc(O)c(NC=O)c2)c1` [Example 2, N-(tert-Butyl)-3-(4-{[6-({(2R)-2-[3-(formylamino)-4-hydroxyphenyl]-2-hydroxyethyl}amino)hexyl]oxy}butyl)benzenesulfonamide] it was under 1000 nM.

A word on the IC50: it is the midpoint of a concentration-inhibition curve.
